Experimental data reported in patent US20130266636A1, “METHODS FOR BLOCKING CELL PROLIFERATION AND TREATING DISEASES AND CONDITIONS RESPONSIVE TO CELL GROWTH INHIBITION” (THE REGENTS OF THE UNIVERSITY OF CALIFORNIA, priority 2010, published 2013).

Experiments:
Format in all cases: cell-based
[1] = system: human breast (MDA-MB-231) carcinoma cell line; assay: Cell viability assay in MDA-MB-231 cells; details: for cell viability / potency relative to KG5 (cell viability EC50s): MDA-MB-231; for EC50: MDA-MB-231 breast cancer cell viability assays
[2] = system: human lung (A549) carcinoma cell line; assay: Cell viability assay in A549 cells; details: for cell viability / potency relative to KG5 (cell viability EC50s): A549; for EC50: A549 lung cancer cells
[3] = system: human breast (T47D) carcinoma cell line; assay: Cell viability assay in T47D cells; details: for cell viability / potency relative to KG5 (cell viability EC50s): T47D; for EC50: T47D breast cancer cells

CSc1nc(N)cc(Oc2ccc(-c3nnc(Nc4cc(C)ccc4C)[nH]3)cc2)n1 [H3-3, 6-(4-{5-[(2,5-dimethylphenyl)amino]-4H-1,2,4-triazol-3-yl}phenoxy)-2-(methylsulfanyl)pyrimidin-4-amine]
cell viability [1]: decrease cell viability | potency relative to KG5 (cell viability EC50s) [1]: more potent than KG5 | EC50 [1]: approach picomolar (pM) EC50s | cell viability [2]: decrease cell viability | potency relative to KG5 (cell viability EC50s) [2]: more potent than KG5 | EC50 [2]: approach picomolar (pM) EC50s | cell viability [3]: decrease cell viability | potency relative to KG5 (cell viability EC50s) [3]: more potent than KG5 | EC50 [3]: approach picomolar (pM) EC50s

CSc1nc(N)cc(Oc2ccc(-c3nnc(Nc4cc(C)cc(C)c4)[nH]3)cc2)n1 [H3-7, 6-(4-{5-[(3,5-dimethylphenyl)amino]-4H-1,2,4-triazol-3-yl}phenoxy)-2-(methylsulfanyl)pyrimidin-4-amine]
cell viability [1]: decrease cell viability | potency relative to KG5 (cell viability EC50s) [1]: more potent than KG5 | EC50 [1]: approach picomolar (pM) EC50s | cell viability [2]: decrease cell viability | potency relative to KG5 (cell viability EC50s) [2]: more potent than KG5 | EC50 [2]: approach picomolar (pM) EC50s | cell viability [3]: decrease cell viability | potency relative to KG5 (cell viability EC50s) [3]: more potent than KG5 | EC50 [3]: approach picomolar (pM) EC50s

CSc1nc(N)cc(Oc2ccc(-c3nnc(Nc4ccc(C)c(C)c4)[nH]3)cc2)n1 [H3-9, 6-(4-{5-[(3,4-dimethylphenyl)amino]-4H-1,2,4-triazol-3-yl}phenoxy)-2-(methylsulfanyl)pyrimidin-4-amine]
cell viability [1]: decrease cell viability | potency relative to KG5 (cell viability EC50s) [1]: more potent than KG5 | EC50 [1]: approach picomolar (pM) EC50s

CSc1nc(N)cc(Oc2ccc(-c3nnc(Nc4cccc(C)c4C)[nH]3)cc2)n1 [H3-11, 6-(4-{5-[(2,3-dimethylphenyl)amino]-4H-1,2,4-triazol-3-yl}phenoxy)-2-(methylsulfanyl)pyrimidin-4-amine]
cell viability [1]: decrease cell viability | potency relative to KG5 (cell viability EC50s) [1]: more potent than KG5 | EC50 [1]: approach picomolar (pM) EC50s

CSc1nc(N)cc(Oc2ccc(-c3nnc(Nc4cccc5c4CCCC5)[nH]3)cc2)n1 [H3-21, 2-(methylsulfanyl)-6-{4-[5-(5,6,7,8-tetrahydronaphthalen-1-ylamino)-4H-1,2,4-triazol-3-yl]phenoxy}pyrimidin-4-amine]
cell viability [1]: decrease cell viability | potency relative to KG5 (cell viability EC50s) [1]: more potent than KG5 | EC50 [1]: approach picomolar (pM) EC50s | cell viability [2]: decrease cell viability | potency relative to KG5 (cell viability EC50s) [2]: more potent than KG5 | EC50 [2]: approach picomolar (pM) EC50s | cell viability [3]: decrease cell viability | potency relative to KG5 (cell viability EC50s) [3]: more potent than KG5 | EC50 [3]: approach picomolar (pM) EC50s

CCOc1nc(N)cc(Oc2ccc(-c3nnc(Nc4cccc(C(F)(F)F)c4)[nH]3)cc2)n1 [K1-72, 2-ethoxy-6-[4-(5-{[3-(trifluoromethyl)phenyl]amino}-4H-1,2,4-triazol-3-yl)phenoxy]pyrimidin-4-amine]
cell viability [1]: decrease cell viability | potency relative to KG5 (cell viability EC50s) [1]: more potent than KG5 | EC50 [1]: approach picomolar (pM) EC50s
